Measured values: patent publication US7595327B2, “Beta-sulfonamide hydroxamic acid inhibitors of tace/matrix metalloproteinase” (priority 2005, dated 2009)

Legend:
recombinant human MMP-9 = biological target: T1, recombinant human MMP-9 (Homo sapiens, UniProt P14780); experiment: In-vitro fluorescence assay of MMP-9 activity; format: biochemical
T1 construct: purchased Calbiochem PF024
Experimental: The method was similar to that for the determination of MMP-1 activity, described above, with the following differences. Active, recombinant human MMP-7 was purchased from Calbiochem (catalog #444270; expressed in E. coli, 19 kDa). […] The concentration of the substrate stock was spectrophotometrically determined using the extinction coefficient at 410 nm of 7500 M^−1 cm^−1. The assay buffer (pH 7.4) consisted of 50 mM Hepes, 100 mM NaCl, 5 mM CaCI2, and 0.005% Brij-35. […] The plates were then incubated at room temperature for 30 minutes. The enzymatic reactions were initiated by adding substrate to a final concentration of 15 μM and were mixed by pipelting up and down. The final DMSO concentration in the assay was 10% and the final, total assay volume was 200 μl. […].
The method was essentially the same as for the determination of MMP-7 activity, described above, except that the source of enzyme in the assay was recombinant human MMP-9 (83 kDa) was purchased from Calbiochem (catalog #PF024), the final enzyme concentration was 0.5-1.0 nM, and the final substrate concentration was 20 μM.

recombinant human MMP-7 = biological target: T2, recombinant human MMP-7 (Homo sapiens, UniProt P09237); experiment: In-vitro fluorescence assay of MMP-7 activity; format: biochemical
T2 construct: Active, recombinant human MMP-7 was purchased from Calbiochem (catalog #444270; expressed in E. coli, 19 kDa); purchased Calbiochem 444270; host or cells: E. coli
T2 sequence (P09237 95-267): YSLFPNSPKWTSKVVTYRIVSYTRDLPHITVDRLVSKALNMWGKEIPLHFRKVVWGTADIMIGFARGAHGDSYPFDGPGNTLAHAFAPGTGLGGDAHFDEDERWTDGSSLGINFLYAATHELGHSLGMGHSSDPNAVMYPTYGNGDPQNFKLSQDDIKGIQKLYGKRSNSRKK
Experimental: The method was similar to that for the determination of MMP-1 activity, described above, with the following differences. Active, recombinant human MMP-7 was purchased from Calbiochem (catalog #444270; expressed in E. coli, 19 kDa). […] The concentration of the substrate stock was spectrophotometrically determined using the extinction coefficient at 410 nm of 7500 M^−1 cm^−1. The assay buffer (pH 7.4) consisted of 50 mM Hepes, 100 mM NaCl, 5 mM CaCI2, and 0.005% Brij-35. […] The plates were then incubated at room temperature for 30 minutes. The enzymatic reactions were initiated by adding substrate to a final concentration of 15 μM and were mixed by pipelting up and down. The final DMSO concentration in the assay was 10% and the final, total assay volume was 200 μl. […]

[1] = biological target: T3, recombinant human catalytic domain of MMP-1 (Homo sapiens, UniProt P03956); experiment: In-vitro fluorescence assay of MMP-1 activity; format: biochemical
T3 construct: The source of enzyme in the assay was the recombinant human catalytic domain of MMP-1
T3 sequence (P03956 100-269 limits assumed): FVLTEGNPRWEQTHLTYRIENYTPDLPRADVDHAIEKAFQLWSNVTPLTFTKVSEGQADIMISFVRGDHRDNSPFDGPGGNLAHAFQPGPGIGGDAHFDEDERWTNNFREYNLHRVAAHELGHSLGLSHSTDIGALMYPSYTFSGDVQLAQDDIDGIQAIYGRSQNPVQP

[2] = biological target: T4, TACE (catalytic domain of the recombinant TACE protein) (Homo sapiens, UniProt P78536); experiment: TACE FRET assay using TACE Cat; format: biochemical; details: FRET, pro-TNF-α substrate peptide; read-out: TACE IC50
T4 construct: The catalytic domain of the recombinant TACE protein was expressed and purified; made in house
In short: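 Recombinant TACE catalytic domain (1 ug/ml) pre-incubated 10 min at room temperature with inhibitor in 50 mM Tris-HCl pH 7.4, 25 mM NaCl, 4% glycerol, 0.005% Brij 35; Abz/Dpa pro-TNF-α peptide substrate added, fluorescence (Ex 320/Em 420) followed 10 min; IC50 from initial rates by Hill fit.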

MMP-13 = MMP-13 (Homo sapiens, UniProt P45452); experiment: In-vitro fluorescence assay of MMP-13 activity; format: biochemical
Experimental: See Knight, C. […] […].
The method was essentially the same as for the determination of MMP-1 activity, described above, except that the final concentration of purified MMP in the assay was 0.5 nM, prepared by diluting with the assay buffer.

[3] = biological target: T5, recombinant human catalytic domain of MMP-14 (Homo sapiens, UniProt P50281); experiment: In-vitro fluorescence assay of MMP-14 activity; format: biochemical
T5 construct: 20 kDa; purchased Chemicon International, Inc. CC1041
Experimental: The results were analyzed as described for MMP-13 activity, above.

[4] = tested on: TNF-α secretion in Raw 264.7 cells; experiment: Cell-based assay for inhibition of TNF-α secretion in Raw cells; details: Mus musculus, RAW264.7, LPS 100 ng/ml, 4 hr
In short: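 Confluent Raw 264.7 cells were seeded overnight, refed, and pre-incubated 1 hr with compound (0.2% final DMSO), then stimulated with LPS at 100 ng/ml final for 4 hr at 37° C. Supernatant TNF-α measured by ELISA; % inhibition and IC50 by curve fitting.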

T4 sequence (P78536 223-474 limits assumed): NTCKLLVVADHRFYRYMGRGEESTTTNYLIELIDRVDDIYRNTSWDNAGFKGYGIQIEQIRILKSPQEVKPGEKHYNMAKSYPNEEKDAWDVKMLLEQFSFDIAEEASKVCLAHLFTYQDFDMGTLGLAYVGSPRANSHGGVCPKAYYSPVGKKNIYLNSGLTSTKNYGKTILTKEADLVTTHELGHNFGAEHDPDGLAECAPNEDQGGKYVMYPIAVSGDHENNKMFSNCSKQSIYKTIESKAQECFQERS
T1 sequence (P14780 107-707 limits assumed): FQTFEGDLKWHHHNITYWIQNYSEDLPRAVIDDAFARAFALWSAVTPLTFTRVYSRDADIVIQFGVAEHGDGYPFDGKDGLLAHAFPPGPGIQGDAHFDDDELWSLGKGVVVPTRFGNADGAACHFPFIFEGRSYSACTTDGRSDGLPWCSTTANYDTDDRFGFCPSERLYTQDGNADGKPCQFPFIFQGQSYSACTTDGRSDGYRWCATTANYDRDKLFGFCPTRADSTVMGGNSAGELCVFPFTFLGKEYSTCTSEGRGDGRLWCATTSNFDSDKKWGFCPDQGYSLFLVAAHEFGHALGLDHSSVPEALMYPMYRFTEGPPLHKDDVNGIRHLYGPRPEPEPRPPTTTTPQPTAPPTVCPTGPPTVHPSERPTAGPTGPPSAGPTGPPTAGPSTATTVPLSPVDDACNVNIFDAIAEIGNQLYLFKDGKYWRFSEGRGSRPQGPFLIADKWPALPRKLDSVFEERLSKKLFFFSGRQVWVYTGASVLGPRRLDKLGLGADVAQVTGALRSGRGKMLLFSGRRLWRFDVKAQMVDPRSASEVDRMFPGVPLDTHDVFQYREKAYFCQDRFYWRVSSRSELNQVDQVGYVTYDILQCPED

IC50 (recombinant human MMP-9) | IC50 (recombinant human MMP-7) | IC50 [1] | IC50 [2] | IC50 (MMP-13) | IC50 [3] | IC50 [4] | Compound
> 16700 nM | 668 nM | > 16700 nM | 0.6 nM | > 10000 nM | > 16700 nM | 24 nM | Cc1cc(COc2ccc(S(=O)(=O)N[C@@H]3CN(S(C)(=O)=O)C[C@@H]3C(=O)NO)cc2)c2ccccc2n1 (relative stereo) [Example 17, cis-N-Hydroxy-4-[({4-[(2-methylquinolin-4-yl)methoxy]phenyl}sulfonyl)amino]-1-(methylsulfonyl) pyrrolidine-3-carboxamide]
> 16700 nM | 812 nM | > 16700 nM | 1.1 nM | 10200 nM | > 16700 nM | 20 nM | Cc1cc(COc2ccc(S(=O)(=O)N[C@@H]3CN(C=O)C[C@@H]3C(=O)NO)cc2)c2ccccc2n1 (relative stereo) [Example 20, cis-1-Formyl-N-hydroxy-4-[({4-[(2-methylquinolin-4-yl)methoxy]phenyl}sulfonyl)amino]pyrrolidine-3-carboxamide]
> 16700 nM | 1170 nM | > 16700 nM | 1.3 nM | > 16700 nM | > 16700 nM | 51 nM | CCNC(=O)N1C[C@H](C(=O)NO)[C@H](NS(=O)(=O)c2ccc(OCc3cc(C)nc4ccccc34)cc2)C1 (relative stereo) [Example 23, cis-1-Ethyl-N-hydroxy-4-[({4-[(2-methylquinolin-4-yl)methoxy]phenyl}sulfonyl)amino]pyrrolidine-1,3-dicarboxamide]
> 16700 nM | 827 nM | > 16700 nM | 0.6 nM | > 16700 nM | > 16700 nM | 12 nM | Cc1cc(COc2ccc(S(=O)(=O)N[C@H]3COC[C@H]3C(=O)NO)cc2)c2ccccc2n1 (stereo in doubt) [Example 26, (3S,4R)-4-[4-(2-Methyl-quinolin-4-ylmethoxy)-benzenesulfonylamino]-tetrahydro-furan-3-carboxylic acid hydroxyamide]
> 16700 nM | 444 nM | > 16700 nM | < 0.6 nM | > 10000 nM | > 16700 nM | 9 nM | Cc1cc(COc2ccc(S(=O)(=O)N[C@@H]3CCC[C@@H]3C(=O)NO)cc2)c2ccccc2n1 [Example 13, (1S,2R)-N-Hydroxy-2-[({4-[(2-methylquinolin-4-yl)methoxy]phenyl}sulfonyl)amino]cyclopentanecarboxamide]
> 16700 nM | 4620 nM | > 16700 nM | 1.4 nM | > 16700 nM | > 16700 nM | 58 nM | Cc1cc(COc2ccc(S(=O)(=O)N[C@@H]3CN(C(=O)NC(C)(C)C)CC[C@@H]3C(=O)NO)cc2)c2ccccc2n1 [Example 35, 3-[4-(2-Methyl-quinolin4-ylmethoxy)-benzenesulfonylamino]-piperidine-1,4-dicarboxylic acid 1-tert-butylamide 4-hydroxyamide]
